One block for each compound: values may come before it.
What was measured:
[1] = system: mTOR signaling in brain and skeletal muscle; experiment: In vivo brain/periphery mTOR inhibition in mouse model, blocker combined with rapamycin or RapaLink-1; settings: muscle and brain
p-S6 level in MCF7 cells = experiment: Western blot of p-S6 level in MCF7 cells after combination treatment with Rapa/Rapalink and candidate compound (blockade score); assay type: cell-based; settings: 24 h, p-S6 level as fraction of DMSO control; for RapaLink-1 Blockade: 10 nM Rapalink + 10 μM candidate compound
FKBP12 = FKBP12 (Homo sapiens (Human), UniProt P62942); experiment: FKBP12 binding assay (fluorescence polarization); settings: read-out: Kd FKBP12
glioblastoma PDX = settings: mice; Fan, Q. et al., 2017, Cancer Cell; cited from earlier work
MCF7 cells = experiment: FKBP dependence of Rapamycin/RapaLink-1 function in MCF7 cells; assay type: cell-based; settings: MCF7 cells dosed at 50% confluency, 37° C., 24 h
Experimental: FIG. 4. […] MCF7 cells dosed at 50% confluency, 37° C., 24 h.

K562 cells = experiment: Growth inhibition of K562 cells; assay type: cell-based; settings: Homo sapiens
From the text: The unique dependency of FK506-dasatinib on FKBP proteins implied that it may be exploited to modulate the function of these molecules. […]. Meanwhile, the blocker compound […] dasatinib-treated samples (FIG. 13A, lanes 2 and 5). […].

[2] = system: 139 kinases captured by the probe in Jurkat cells; experiment: XO44 chemoproteomic probe kinome occupancy in live cells; assay type: cell-based; settings: 100 nM, among 139 kinases captured by XO44 in Jurkat cells
Jurkat cells [3] = experiment: CD3 crosslinking (OKT3)-triggered T cell activation, phosphotyrosine Western blot; assay type: cell-based; settings: 100 nM, Jurkat cells stimulated with OKT3
Jurkat cells [4] = experiment: Drug washout, phosphotyrosine recovery (residence time in cells); assay type: cell-based; settings: 100 nM for 1 h, then drug removed

Sequence of FKBP12 (P62942 whole entry): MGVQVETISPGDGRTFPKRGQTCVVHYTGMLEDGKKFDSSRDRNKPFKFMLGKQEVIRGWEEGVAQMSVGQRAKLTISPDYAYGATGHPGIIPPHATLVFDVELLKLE

Compound: CO[C@@H]1C[C@@H]2CC[C@@H](C)[C@@](O)(O2)C(=O)C(=O)N2CCCC[C@@H]2C(=O)O[C@H]([C@H](C)C[C@H]2CC[C@H](OCCOCc3cn(CCOCCOCCOCCOCCOCCOCCOCCOCCC(=O)NCCCCn4nc(-c5ccc6oc(N)nc6c5)c5c(N)ncnc54)nn3)[C@H](OC)C2)CC(=O)[C@H](C)/C=C(\C)[C@H](O)[C@@H](OC)C(=O)[C@H](C)C[C@H](C)/C=C/C=C/C=C/1C [RapaLink-1]
growth of glioblastoma PDX (glioblastoma PDX): suppresses growth | dependence of function on FKBP (MCF7 cells): FKBP is essential for the function

Compound: CO[C@H]1C[C@@H]2CC[C@@H](C)[C@@](O)(O2)C(=O)C(=O)N2CCCC[C@H]2C(=O)O[C@H]([C@H](C)C[C@@H]2CC[C@@H](O)[C@H](OC)C2)CC(=O)[C@H](C)/C=C(\C)[C@@H](O)[C@@H](OC)C(=O)[C@H](C)C[C@H](C)/C=C/C=C/C=C/1C [Rapamycin, rapamycin]
dependence of function on FKBP (MCF7 cells): FKBP is essential for the function

Now from value to compound, other results behind:

Kd (FKBP12): 2.5 nM
Compound: CO[C@H]1C/C(C)=C/[C@@H](CCCc2cccc[n+]2[O-])C(=O)C[C@H](O)[C@@H](C)[C@@H](/C(C)=C/[C@@H]2CC[C@@H](O)[C@H](OC)C2)OC(=O)[C@@H]2CCCCN2C(=O)C(=O)[C@]2(O)O[C@H]([C@@H](OC)C1)[C@@H](OC)C[C@H]2C [ZZY05-092 / ZZY06-041]
In Vivo ([1]; 1 mg/kg Rapalink-1 + 40 mg/kg compound): Dose: 1 mg/kg Rapalink-1 + 40 mg/kg ZZY05- 092 Blocks Rapalink-1 in muscle; Potentiates Rapalink-1 in brain | RapaLink-1 Blockade (p-S6 level in MCF7 cells): 3 (>70%)

Kd (FKBP12): 28.8 nM
Compound: CCC(C)(C)C(=O)C(=O)N1CCCC[C@H]1C(=O)O[C@H](CCc1ccc(OC)c(OC)c1)c1cccc(NC(=O)Cc2cccc[n+]2[O-])c1 [ZZY03-087]
In Vivo ([1]; combination with rapamycin): Blocks rapamycin in muscle, potentiates rapamycin in brain | Rapamycin Blockade (p-S6 level in MCF7 cells; 10 nM Rapa + 10 μM candidate compound): 3 (>70%) | RapaLink-1 Blockade (p-S6 level in MCF7 cells): 0 (<20%)

IC50 (K562 cells; K562, absent ZZY05-026 (RapaBlock)): 0.063 nM | IC50 (K562 cells; K562, with 10 μM RapaBlock): 0.16 nM
Compound: Cc1nc(Nc2ncc(C(=O)Nc3c(C)cccc3Cl)s2)cc(N2CCN(CCO)CC2)n1 [Dasatinib, dasatinib, reference compound]
Number of kinases inhibited >70% [2]: 9 | Total phospho-tyrosine level and phosphorylation of TCR signaling proteins (Jurkat cells [3]): dampened | Time after drug washout to restored phosphotyrosine signal (Jurkat cells [4]): ≤ 1 h
